Earlier results as cited in patent publication EP1288303A1, “Inducible expression systems employing PPAR transcriptional activators” (Aventis Pharma S.A., priority 2001, dated 2003).

Conditions: form not soluble in water; doses between 5 and 50 mg/kg, for example 30 mg/kg

## CN(CCOc1ccc(CC2SC(=O)NC2=O)cc1)c1ccccn1 (stereo not shown) [BRL49653, rosiglitazone]
  plasma concentration: about 15 µg/ml
